# Source: US20220152165A1, “COMBINATION OF NASAL GENE DELIVERY AND ORAL CINNAMIC ACID, OLEAMIDE OR GEMFIBROZIL FOR LYSOSOMAL STOARGE DISORDERS” (Rush University Medical Center, priority 2019, published 2022)
# Test system: Cln2^(−/−) mice
# Assay: Life span of Cln2^(−/−) mice, animal model of late infantile Batten disease (LINCL)
# Type: in vivo
# Settings: n=6
# Method: (§1) For intranasal gene delivery, Cln2^(−/−) mice received 5×10^6 genome copies of Ad-Cln2 in a volume of […] twice a week intranasally (2.5 μl/nostril) starting from two weeks of age for four weeks. For gemfibrozil (gem) treatment, mice received gem (dissolved in 0.1% MeC) orally at a dose of 7.5 mg/kg body weight/day starting from six weeks of age. FIG. 1 describes the percentage of survival is shown by Kaplan-Meier plot.
# as §1, with “FIG. 2” for “FIG. 1”, “describes mean” for “describes the percentage of”, “survival days. Six mice (n=6) containing 3 males and 3 females were used in each group. ***p<0.001; NS, not significant.” for “survival is shown by Kaplan-Meier plot.”
# Intranasal gene delivery was examined as a valid option for fatal lysosomal storage disorders. A mouse model of Late Infantile Neuronal Ceroid Lipofuscinosis (LINCL) was used, a rare neurodegenerative disease caused by mutations in the Cln2 gene that leads to deficiency or loss of function of the tripeptidyl peptidase 1 (TPP1) enzyme. […]
smiles,measurement,setting,value
"Cc1ccc(C)c(OCCCC(C)(C)C(=O)O)c1 [gemfibrozil, 5-(2,5-dimethylphenoxy)-2,2-dimethylpentanoic acid]",lifespan of Cln2^−/− mice,"gemfibrozil alone, oral 7.5 mg/kg body weight/day starting from six weeks of age, mice not receiving Ad-Cln2",significantly increased the lifespan
same,lifespan of Cln2^−/− mice that received intranasal Ad-Cln2,"oral gemfibrozil 7.5 mg/kg body weight/day after 4 weeks of intranasal Ad-Cln2, compared with Ad-Cln2 alone",did not further increase the lifespan
